Results reported in paper PMC5602355, “Endogenous Isoquinoline Alkaloids Agonists of Acid-Sensing Ion Channel Type 3” (Frontiers in Molecular Neuroscience, 2017).

Assays:
human ASIC3 (hASIC3) [1] = target: T1, human ASIC3 (hASIC3) (Homo sapiens, UniProt Q9UHC3); assay: Activation of hASIC3 channels expressed in Xenopus laevis oocytes, whole-cell two electrode voltage clamp; assay type: cell-based; conditions: for Maximal activating effect reached, % of Imax: Imax predicted by logistic fit
T1 construct: expressed in transfected cells; host or cells: Xenopus laevis oocytes (injected)
T1 sequence (Q9UHC3 1-531): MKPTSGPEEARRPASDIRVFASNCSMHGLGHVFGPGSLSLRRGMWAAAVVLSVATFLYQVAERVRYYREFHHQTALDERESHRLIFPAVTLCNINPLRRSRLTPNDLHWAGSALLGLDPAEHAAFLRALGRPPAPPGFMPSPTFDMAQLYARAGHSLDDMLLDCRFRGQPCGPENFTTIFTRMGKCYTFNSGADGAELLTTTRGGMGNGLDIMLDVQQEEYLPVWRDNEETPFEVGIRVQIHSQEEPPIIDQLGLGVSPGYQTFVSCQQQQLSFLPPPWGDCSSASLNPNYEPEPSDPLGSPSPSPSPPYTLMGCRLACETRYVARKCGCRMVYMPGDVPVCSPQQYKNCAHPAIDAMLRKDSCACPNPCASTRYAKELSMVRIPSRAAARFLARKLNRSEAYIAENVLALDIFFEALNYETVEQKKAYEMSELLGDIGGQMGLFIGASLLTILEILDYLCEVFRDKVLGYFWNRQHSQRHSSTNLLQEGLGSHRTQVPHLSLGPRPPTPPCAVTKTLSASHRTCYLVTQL
Text: (§1) The ability of EIAs to activate ASIC3 channels was studied in whole-cell configuration on oocytes of Xenopus laevis. THP and reticuline caused slowly activated sustained inward currents both in human (Figures 1A,B) and rat (Figures 1C,D) homomeric ASIC3 channels at resting pH 7.4 and above.
(§2) In the case of human ASIC3 channels (hASIC3), the activating effect was greater and even exceeded the response of the cell to pH drop of 7.8–5.5 in control experiments (Figure 1A). The maximal effect reached about 30% of Imax (a maximal amplitude predicted by the logistic equation fitting of dose-dependence of EIA-induced current). […] THP shown the same potency on the rASIC3 channel (rASIC3; Figure 1C). The activating effect under the same conditions reached about 30% of Imax.
(§3) Consequently, a maximal concentration of 1 mM was used in experimentations. The maximal effect on hASIC3 reached about 60% of Imax.
(§4) Oocytes expressed hASIC3 and rASIC3 homomeric channels were prepared as described (Dubinnyi et al., [2012]). After injection, the oocytes were kept for 2–3 days at 19°C and then up to 7 days at 15°C in an ND-96 medium containing (in mM): 96 NaCl, 2 KCl, 1.8 CaCl2, 1 MgCl2 and 10 HEPES titrated to pH 7.4 with NaOH supplemented with gentamycin (50 μg/ml). Two electrode voltage clamp recordings were made using a GeneClamp500 amplifier (Axon Instruments), and data were filtered at 20 Hz and digitized at 100 Hz by an AD converter L780 (L-Card, Moscow, Russia) using homemade software. A computer-controlled valve system for a fast solution switch was used. Microelectrodes were filled with 3 M KCl solutions. All solutions of the testing compounds were supplemented with 0.1% BSA. To induce currents, we employed ND-96-modified solutions in which 10 mM of HEPES was substituted for 5 mM MES pH 5.5. A set of external ND-96 solutions with pH 6.8–7.0 (buffered with 10 mM of MOPS), pH 7.1–8.0 (buffered with 10 mM of HEPES) was prepared.
The analysis of electrophysiological data was performed using the program OriginPro 8.6. The curve-fitting analysis was carried out with the following four-parameter logistic equation: F(x) = A/(1 + (x/x0)n), where x is the concentration of the ligand, F(x) is the response value at a given ligand concentration, A is the response value at maximal activation (% of control), x0 is the EC50 value and n is the Hill coefficient (slope factor). All data are presented as the mean ± SE.

[2] = Solubility in physiological solutions for electrophysiology; assay type: physicochemical; conditions: in words; maximal concentration used 1 mM
Method: as §3

rat ASIC3 (rASIC3) [3] = target: T2, rat ASIC3 (rASIC3) (Rattus norvegicus, UniProt O35240); assay: Activation of rASIC3 channels expressed in Xenopus laevis oocytes, whole-cell two electrode voltage clamp; assay type: cell-based
T2 construct: expressed in transfected cells; host or cells: Xenopus laevis oocytes (injected)
T2 sequence (O35240 1-533): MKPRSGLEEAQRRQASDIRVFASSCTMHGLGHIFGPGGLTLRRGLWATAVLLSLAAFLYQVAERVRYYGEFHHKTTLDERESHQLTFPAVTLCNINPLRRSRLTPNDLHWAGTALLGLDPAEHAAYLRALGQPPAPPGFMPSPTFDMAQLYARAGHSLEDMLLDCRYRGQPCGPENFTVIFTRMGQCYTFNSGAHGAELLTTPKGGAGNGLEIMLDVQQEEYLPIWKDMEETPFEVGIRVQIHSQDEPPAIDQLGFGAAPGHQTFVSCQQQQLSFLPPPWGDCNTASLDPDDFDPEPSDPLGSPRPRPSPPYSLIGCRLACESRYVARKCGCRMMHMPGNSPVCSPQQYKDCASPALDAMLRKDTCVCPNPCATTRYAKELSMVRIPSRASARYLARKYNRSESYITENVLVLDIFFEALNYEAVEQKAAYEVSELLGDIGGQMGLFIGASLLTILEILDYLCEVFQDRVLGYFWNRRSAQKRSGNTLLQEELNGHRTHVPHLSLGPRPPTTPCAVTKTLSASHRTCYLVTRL
Text: as §1, §2, §4
(§5) The analysis of electrophysiological data was performed using the program OriginPro 8.6. […]

human ASIC3 (hASIC3) [4] = target: T1, human ASIC3 (hASIC3); assay: Recovery of the transient current of hASIC3 from steady-state desensitization, oocytes; assay type: cell-based; conditions: hASIC3, conditioning pH 7.3, pH 5.5 stimulus, n = 4-5
Method: EIAs cause both the channel activation and transient component of hASIC3 current restoration from a desensitization at pH 7.3 (Figures 2A,D). For THP, the restoration effect was more pronounced. This effect was dose-dependent and reached a maximal possible value at the highest applied concentration of THP (10 mM). […] For this reason, the maximal amplitude of the transient current recovered by THP from desensitization (Imax) was predicted by the fitting of the dose dependence by a logistic equation for each experimental cell.
as §4, with “To induce currents, we employed ND-96-modified solutions in which 10 mM of HEPES was substituted for 5 mM MES pH 5.5. A set of external ND-96 solutions with pH 6.8–7.0 (buffered with 10 mM of MOPS), pH 7.1–8.0 (buffered with 10 mM of HEPES) was prepared.” left out

rat ASIC3 (rASIC3) [5] = target: T2, rat ASIC3 (rASIC3); assay: Recovery of the transient current of rASIC3 from steady-state desensitization, oocytes; assay type: cell-based; conditions: rASIC3, conditioning pH 6.8, pH 5.5 stimulus, n = 4-5
Method: as §4, §5

[6] = hASIC3, holding pH 7.8, logistic fit, n = 5

| Compound | Hill coefficient (nH) of channel activation (human ASIC3 (hASIC3) [1]; [6]) | EC50 (human ASIC3 (hASIC3) [1]; hASIC3, holding pH 7.8, logistic fit, n = 5, read-out: EC50 of channel activation (EIA-induced sustained current)) [mM] | Maximal activating effect reached, % of Imax (human ASIC3 (hASIC3) [1]; hASIC3, maximal concentration 1 mM) | Solubility in physiological solutions for electrophysiology [2] | EC50 (human ASIC3 (hASIC3) [1]) [mM] | Maximal activating effect reached, % of Imax (human ASIC3 (hASIC3) [1]; hASIC3, pH 7.8, highest accessible concentration 10 mM) | Hill coefficient (nH) of channel activation (rat ASIC3 (rASIC3) [3]; rASIC3, holding pH 7.8, logistic fit, n = 5) | EC50 (rat ASIC3 (rASIC3) [3]; rASIC3, holding pH 7.8, logistic fit, n = 5, read-out: EC50 of channel activation (EIA-induced sustained current)) [mM] | Maximal activating effect reached, % of Imax (rat ASIC3 (rASIC3) [3]; rASIC3, pH 7.8, up to 10 mM, Imax predicted by logistic fit) | EC50 (human ASIC3 (hASIC3) [4]) [mM] | EC50 (rat ASIC3 (rASIC3) [5]) [mM] |
| --- | --- | --- | --- | --- | --- | --- | --- | --- | --- | --- | --- |
| COc1ccc(CC2c3cc(O)c(OC)cc3CCN2C)cc1O (stereo not drawn) [Reticuline, reticuline] | 0.85 ± 0.05 | 0.56 ± 0.04 | about 60 % of Imax | does not have a high solubility |  |  |  |  |  |  |  |
| Oc1ccc(CC2NCCc3cc(O)c(O)cc32)cc1O (stereo not drawn) [THP, tetrahydropapaveroline] | 0.99 ± 0.05 |  |  |  | > 10 | about 30 % of Imax | 0.95 ± 0.04 | > 10 | about 30 % of Imax | 2.3 ± 0.04 | 4.6 ± 0.1 |
